The first series deals with A549 cells. The series can be described thus: Cellular proliferation/cytotoxicity assay (Alamar Blue), A549 cells. Particulars: Homo sapiens, A549, 72 h, read-out: Anti-proliferative/Cytotoxic activity (A549 cells).
On to `Cc1cccc(-c2nnc(C3CCN(Cc4ccc(-c5nc6ncccn6c5-c5ccccc5)cc4)CC3)[nH]2)n1` [Example 63, 2-[4-({4-[5-(6-methylpyridin-2-yl)-4H-1,2,4-triazol-3-yl]piperidin-1-yl}methyl)phenyl]-3-phenylimidazo[1,2-a]pyrimidine], for which the IC50 is over 10 µM.

As to `Cc1nn2c(-c3ccccc3)c(-c3ccc(CN4CCC(c5nnc(-c6ccccn6)[nH]5)CC4)cc3)nc2s1` [Example 45, 2-methyl-5-phenyl-6-[4-({4-[5-(pyridin-2-yl)-4H-1,2,4-triazol-3-yl]piperidin-1-yl}methyl)phenyl]imidazo[2,1-b][1,3,4]thiadiazole], the IC50 was over 10 µM. Take `c1ccc(-c2nnc(C3CCN(Cc4ccc(-c5nc6scnn6c5-c5ccccc5)cc4)CC3)[nH]2)cc1` [Example 123, 5-phenyl-6-(4-{[4-(5-phenyl-4H-1,2,4-triazol-3-yl)piperidin-1-yl]methyl}phenyl)imidazo[2,1-b][1,3,4]thiadiazole]: the IC50 was under 10 µM. For the compound `N#Cc1ccn2c(-c3ccccc3)c(-c3ccc(CN4CCC(c5nnc(-c6ccccc6)[nH]5)CC4)cc3)nc2c1` [Example 118, 3-phenyl-2-(4-{[4-(5-phenyl-4H-1,2,4-triazol-3-yl)piperidin-1-yl]methyl}phenyl)imidazo[1,2-a]pyridine-7-carbonitrile], the IC50 is under 10 µM. Same read-out and setting: with `Clc1ccn2c(-c3ccccc3)c(-c3ccc(CN4CCC(c5nnc(-c6ccccn6)[nH]5)CC4)cc3)nc2c1` [Example 54, 7-chloro-3-phenyl-2-(4-{[4-(5-pyridin-2-yl-4H-1,2,4-triazol-3-yl)piperidin-1-yl]methyl}phenyl)imidazo[1,2-a]pyridine] the figure was under 10 µM; with `COc1ccc(-c2c(-c3ccc(CN4CCC(c5n[nH]c(-c6ccccn6)n5)CC4)cc3)nc3ccccn23)cc1` [Example 15, 3-(4-methoxyphenyl)-2-(4-{[4-(5-pyridin-2-yl-1,2,4-triazol-3-yl)piperidin-1-yl]methyl}phenyl)imidazo[1,2-a]pyridine], under 10 µM; with `Fc1ccc2nc(-c3ccc(CN4CCC(c5n[nH]c(-c6ccccn6)n5)CC4)cc3)c(-c3ccccc3)n2c1` [Example 22, 6-fluoro-3-phenyl-2-(4-{[4-(5-pyridin-2-yl-1,2,4-triazol-3-yl)piperidin-1-yl]methyl}phenyl)imidazo[1,2-a]pyridine], over 10 µM.

On to `c1ccc(-c2c(-c3ccc(CN4CCC(c5cc(-c6ccccn6)n[nH]5)CC4)cc3)nc3ncccn23)cc1` [Example 30, 3-phenyl-2-(4-{[4-(3-pyridin-2-yl-pyrazol-5-yl)piperidin-1-yl]methyl}phenyl)imidazo[1,2-a]pyrimidine], for which the IC50 was over 10 µM. Still for that read-out and setting: for `Fc1cccc(-c2c(-c3ccc(CN4CCC(c5n[nH]c(-c6ccccn6)n5)CC4)cc3)nc3ccccn23)c1` [Example 14, 3-(3-fluorophenyl)-2-(4-{[4-(5-pyridin-2-yl-1,2,4-triazol-3-yl)piperidin-1-yl]methyl}phenyl)imidazo[1,2-a]pyridine] the value was under 10 µM. Still for that read-out and setting: for `c1ccc(-c2c(-c3ccc(CN4CCC(c5n[nH]c(-c6ccccn6)n5)CC4)cc3)nc3ncccn23)cc1` [Example 1, 3-phenyl-2-(4-{[4-(5-pyridin-2-yl-1,2,4-triazol-3-yl)piperidin-1-yl]methyl}phenyl)imidazo[1,2-a]pyrimidine] the value was over 10 µM. With `c1ccc(-c2nc(C3CCN(Cc4ccc(-c5nc6ccccn6c5-c5ccncc5)cc4)CC3)n[nH]2)nc1` [Example 16, 3-pyridin-4-yl-2-(4-{[4-(5-pyridin-2-yl-1,2,4-triazol-3-yl)piperidin-1-yl]methyl}phenyl)imidazo[1,2-a]pyridine], the IC50 is over 10 µM. Same read-out and setting: with `Cc1ccc2nc(-c3ccc(CN4CCC(c5nnc(-c6ccccc6)[nH]5)CC4)cc3)c(-c3ccccc3)n2n1` [Example 119, 6-methyl-3-phenyl-2-(4-{[4-(5-phenyl-4H-1,2,4-triazol-3-yl)piperidin-1-yl]methyl}phenyl)imidazo[1,2-b]pyridazine] the figure was under 10 µM.

As to `c1ccc(-c2nc(C3CCN(Cc4ccc(-c5nc6ncccn6c5-c5ccncc5)cc4)CC3)n[nH]2)nc1` [Example 36, 3-pyridin-4-yl-2-(4-{[4-(5-pyridin-2-yl-1,2,4-triazol-3-yl)piperidin-1-yl]methyl}phenyl)imidazo[1,2-a]pyrimidine], the IC50 was over 10 µM. Same read-out and setting: for `FC(F)(F)c1nn2c(-c3ccccc3)c(-c3ccc(CN4CCC(c5nnc(-c6ccccn6)[nH]5)CC4)cc3)nc2s1` [Example 48, 5-phenyl-6-[4-({4-[5-(pyridin-2-yl)-4H-1,2,4-triazol-3-yl]piperidin-1-yl}methyl)phenyl]-2-(trifluoromethyl)imidazo[2,1-b][1,3,4]thiadiazole] the value was over 10 µM.

Still in this series, the particulars now being: read-out: Anti-proliferative/Cytotoxic activity (A549 cells); A549 cells, 72 h, Alamar Blue (Resazurin).
Regarding `c1ccc(-c2c(-c3ccc(CN4CCC(c5nnc(-c6cccs6)[nH]5)CC4)cc3)nc3sccn23)cc1` [Example 100, ′5-phenyl-6-[4-({4-[5-(2-thienyl)-4H-1,2,4-triazol-3-yl]piperidin-1-yl}methyl)phenyl]imidazo[2,1-b][1,3]thiazole], the IC50 is under 10 µM. As for `N#Cc1ccn2c(-c3ccccc3)c(-c3ccc(CN4CCC(c5nnc(-c6cccs6)[nH]5)CC4)cc3)nc2c1` [Example 102, ′3-phenyl-2-[4-({4-[5-(2-thienyl)-4H-1,2,4-triazol-3-yl]piperidin-1-yl}methyl)phenyl]imidazo[1,2-a]pyridine-7-carbonitrile], the IC50 is under 10 µM. Same read-out and setting: for `Clc1ccn2c(-c3ccccc3)c(-c3ccc(CN4CCC(c5nnc(-c6ccc[nH]6)[nH]5)CC4)cc3)nc2c1` [Example 107, ′7-chloro-3-phenyl-2-[4-({4-[5-(1H-pyrrol-2-yl)-4H-1,2,4-triazol-3-yl]piperidin-1-yl}methyl)phenyl]imidazo[1,2-a]pyridine] the value was under 10 µM; for `Cc1ccc2nc(-c3ccc(CN4CCC(c5nnc(-c6ncccn6)[nH]5)CC4)cc3)c(-c3ccccc3)n2n1` [Example 83, ′6-methyl-3-phenyl-2-(4-{[4-(5-pyrimidin-2-yl-4H-1,2,4-triazol-3-yl)piperidin-1-yl]methyl}phenyl)imidazo[1,2-b]pyridazine], over 10 µM.

In the case of `N#Cc1cccn2c(-c3ccccc3)c(-c3ccc(CN4CCC(c5nnc(-c6ccco6)[nH]5)CC4)cc3)nc12` [Example 90, ′2-[4-({4-[5-(2-furyl)-4H-1,2,4-triazol-3-yl]piperidin-1-yl}methyl)phenyl]-3-phenylimidazo[1,2-a]pyridine-8-carbonitrile], the IC50 is over 10 µM. Regarding `N#Cc1cccn2c(-c3ccccc3)c(-c3ccc(CN4CCC(c5nnc(-c6nccs6)[nH]5)CC4)cc3)nc12` [Example 86, ′3-phenyl-2-[4-({4-[5-(1,3-thiazol-2-yl)-4H-1,2,4-triazol-3-yl]piperidin-1-yl}methyl)phenyl]imidazo[1,2-a]pyridine-8-carbonitrile], the IC50 was over 10 µM. Turning to `c1ccc(-c2c(-c3ccc(CN4CCC(c5nnc(-c6ccncc6)[nH]5)CC4)cc3)nc3ccccn23)cc1` [Example 58, ′3-phenyl-2-(4-{[4-(5-pyridin-4-yl-4H-1,2,4-triazol-3-yl)piperidin-1-yl]methyl}phenyl)imidazo[1,2-a]pyridine], the IC50 was under 10 µM.

Source of the values: patent US9387204B2, “Fused bicyclic imidazoles” (BAYER INTELLECTUAL PROPERTY GmbH, priority 2007, dated 2016).
